Reference: patent publication US10479803B2, “Bicyclic heteroarylaminoalkyl phenyl derivatives as PI3K inhibitors” (Incyte Corporation, priority 2014, dated 2019)

Experiments:
human JAK2 = human JAK2 (Homo sapiens (Human), UniProt O60674); assay: In vitro JAK kinase assay (Example J), JAK2; assay type: biochemical; conditions: ratio of IC50s, Assay J at 1 mM ATP
human JAK1 = human JAK1 (Homo sapiens, UniProt P23458); assay: In vitro JAK kinase assay (Example J), JAK1; assay type: biochemical; conditions: Assay J at 1 mM ATP

Sequence of human JAK2 (O60674 828-1132): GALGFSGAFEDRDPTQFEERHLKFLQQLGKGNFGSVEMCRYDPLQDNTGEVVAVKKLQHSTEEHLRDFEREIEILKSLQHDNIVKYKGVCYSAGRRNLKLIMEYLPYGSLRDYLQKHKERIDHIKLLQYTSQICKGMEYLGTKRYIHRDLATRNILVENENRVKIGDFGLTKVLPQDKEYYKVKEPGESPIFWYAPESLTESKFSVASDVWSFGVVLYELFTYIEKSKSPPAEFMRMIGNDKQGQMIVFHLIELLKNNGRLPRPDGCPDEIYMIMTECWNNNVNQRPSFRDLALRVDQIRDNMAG

| SMILES | JAK2/JAK1 (human JAK2) | IC50 (human JAK1) [nM] |
| --- | --- | --- |
| C[C@@H](O)c1nc2cnc3ccsc3c2n1[C@H]1CC[C@H](CC#N)OC1 [#1, ((2R,5S)-5-{2-[(1R)-1-Hydroxyethyl]-1H-imidazo[4,5-d]thieno[3,2-b]pyridin-1-yl}tetrahydro-2H-pyran-2-yl)acetonitrile] | >10 |  |
| N#CCC(CN1CCN(C(=O)c2ccc(C#N)cc2F)CC1)n1ccc(-c2ncnc3[nH]ccc23)c1 (stereo not drawn) [Example 6, 4-[(4-{3-cyano-2-[3-(7H-pyrrolo[2,3-d]pyrimidin-4-yl)-1H-pyrrol-1-yl]propyl}piperazin-1-yl)carbonyl]-3-fluorobenzonitrile] | >10 | < 10 |
